The source of these data is EPA's CvTdb concentration-time database.

Data set [1] concerns Rat. In words: concentration in brain after dosing. As to conditions: 1 h; dosed: Fluorotelomer alcohol 8+2; 24 mg/kg; oral; Male; Harlan Sprague Dawley.
Data set [2] has as its system Rat. In words: concentration in plasma after dosing. The note with it: dosed: Fluorotelomer alcohol 8+2, 12 mg/kg, iv, Male, F344.
Data set [3] concerns Rat. Kind of data set: concentration in plasma after dosing. The note with it: dosed: Fluorotelomer alcohol 8+2, 40 mg/kg, iv, Male, F344.
The subject of data set [4] is Rat. Kind of data set: concentration in kidney after dosing. The note with it: 6 h; dosed: Fluorotelomer alcohol 8+2; 24 mg/kg; oral; Male; Harlan Sprague Dawley.
For data set [5], the system named is Rat. Kind of data set: concentration in plasma after dosing. The note with it: dosed: Fluorotelomer alcohol 8+2, 12 mg/kg, oral, Male, Harlan Sprague Dawley.
For data set [6], the system named is Rat. Kind of data set: concentration in liver after dosing. The note with it: 3 h; dosed: Fluorotelomer alcohol 8+2; 80 mg/kg; oral; Female; Harlan Sprague Dawley.
Data set [7] deals with Rat. Kind of data set: concentration in liver after dosing. As to conditions: 0.5 h; dosed: Fluorotelomer alcohol 8+2; 80 mg/kg; oral; Female; Harlan Sprague Dawley.
The test system of data set [8] is Rat. In words: concentration in liver after dosing. As to conditions: 3 h; dosed: Fluorotelomer alcohol 8+2; 80 mg/kg; oral; Female; Harlan Sprague Dawley. The source holds these as a separate data set.
Data set [9] deals with Rat. In words: concentration in plasma after dosing. The note with it: dosed: Wyeth-14643, 2.0 mg/kg, oral, Male, Sprague-Dawley.
For data set [10], the system named is Rat. Kind of data set: concentration in plasma after dosing. The note with it: 3 h; dosed: Wyeth-14643; 2.0 mg/kg; oral; Male; Sprague-Dawley.
Data set [11] deals with Rat. Kind of data set: concentration in plasma after dosing. The note with it: 6 h; dosed: Di-n-butyl phthalate; 20 mg/kg; iv; Male; Sprague-Dawley.
Data set [12] deals with Rat. Kind of data set: concentration in plasma after dosing. As to conditions: 5 min; dosed: Di-n-butyl phthalate; 100 mg/kg; oral; Male; Sprague-Dawley.
Data set [13] concerns Rat. In words: concentration in plasma after dosing. The note with it: 4 h; dosed: Di-n-butyl phthalate; 20 mg/kg; iv; Male; Sprague-Dawley.
The test system of data set [14] is Rat. Kind of data set: concentration in plasma after dosing. The note with it: 20 min; dosed: dichloroacetic acid; 10 mg/kg; oral; Male; Harlan Sprague Dawley.
The test system of data set [15] is Rat. In words: concentration in brain after dosing. The note with it: 1848 h; dosed: Perfluorodecanoic acid; 10 mg/kg; oral; Male; Harlan Sprague Dawley.
Data set [16] deals with Rat. In words: concentration in liver after dosing. The note with it: 864 h; dosed: Perfluorodecanoic acid; 10 mg/kg; oral; Female; Harlan Sprague Dawley.
In data set [17] the test system is Rat. In words: concentration in kidney after dosing. As to conditions: 864 h; dosed: Perfluorodecanoic acid; 10 mg/kg; oral; Male; Harlan Sprague Dawley.
Data set [18] relates to Rat. In words: concentration in kidney after dosing. As to conditions: 1 h; dosed: Perfluorodecanoic acid; 10 mg/kg; oral; Male; Harlan Sprague Dawley.
Data set [19] relates to Rat. In words: concentration in brain after dosing. As to conditions: 1848 h; dosed: Perfluorodecanoic acid; 10 mg/kg; oral; Female; Harlan Sprague Dawley.
In data set [20] the test system is Rat. In words: concentration in liver after dosing. The note with it: 5.333 h; dosed: Thiodiglycolic Acid; 20 mg/kg; iv; Male; Harlan Sprague Dawley.
For data set [21], the system named is Rat. Kind of data set: concentration in thymus after dosing. As to conditions: 4 h; dosed: Thiodiglycolic Acid; 20 mg/kg; iv; Male; Harlan Sprague Dawley.
Data set [22] has as its system Rat. In words: concentration in heart after dosing. The note with it: 10 min; dosed: Thiodiglycolic Acid; 20 mg/kg; iv; Female; Harlan Sprague Dawley.
In data set [23] the test system is Rat. Kind of data set: concentration in thymus after dosing. As to conditions: 1 h; dosed: Thiodiglycolic Acid; 20 mg/kg; iv; Female; Harlan Sprague Dawley.
The subject of data set [24] is Rat. Kind of data set: concentration in thymus after dosing. As to conditions: 20 min; dosed: Thiodiglycolic Acid; 20 mg/kg; iv; Female; Harlan Sprague Dawley.
The subject of data set [25] is Rat. Kind of data set: concentration in thymus after dosing. As to conditions: 5.333 h; dosed: Thiodiglycolic Acid; 20 mg/kg; iv; Female; Harlan Sprague Dawley.
The subject of data set [26] is Rat. Kind of data set: concentration in heart after dosing. As to conditions: 1 h; dosed: Thiodiglycolic Acid; 20 mg/kg; iv; Male; Harlan Sprague Dawley.
Data set [27] has as its system Rat. Kind of data set: concentration in plasma after dosing. As to conditions: 22 h; dosed: Primidone; 30 mg/kg; oral; Female; F344.
Data set [28] relates to Rat. In words: concentration in plasma after dosing. The note with it: 12 h; dosed: Primidone; 130 mg/kg; oral; Female; F344.
Data set [29] relates to Rat. Kind of data set: concentration in plasma after dosing. The note with it: 40 min; dosed: Bis 2-Chloroethoxy Methane; 20 mg/kg; iv; Female; F344.
Data set [30] concerns Rat. Kind of data set: concentration in plasma after dosing. As to conditions: 2 h; dosed: Bis 2-Chloroethoxy Methane; 40 mg/kg; iv; Male; Harlan Sprague Dawley.
For data set [31], the system named is Rat. Kind of data set: concentration in plasma after dosing. As to conditions: 3 h; dosed: Bis 2-Chloroethoxy Methane; 20 mg/kg; iv; Male; F344.
For data set [32], the system named is Rat. Kind of data set: concentration in plasma after dosing. The note with it: dosed: Bis 2-Chloroethoxy Methane, 40 mg/kg, iv, Male, Harlan Sprague Dawley.
Data set [33] has as its system Rat. In words: concentration in heart after dosing. As to conditions: 1 h; dosed: Bis 2-Chloroethoxy Methane; 20 mg/kg; iv; Female; F344.
Data set [34] has as its system Rat. Kind of data set: concentration in liver after dosing. As to conditions: 5 h; dosed: Bis 2-Chloroethoxy Methane; 20 mg/kg; iv; Male; F344.
Data set [35] relates to Rat. Kind of data set: concentration in plasma after dosing. As to conditions: dosed: Bis 2-Chloroethoxy Methane, 40 mg/kg, iv, Male, Harlan Sprague Dawley. This is another data set of the same source.
Data set [36] relates to Rat. Kind of data set: concentration in plasma after dosing. The note with it: 6 h; dosed: Bis 2-Chloroethoxy Methane; 20 mg/kg; iv; Female; F344.
Data set [37] has as its system Rat. Kind of data set: concentration in plasma after dosing. The note with it: 40 min; dosed: Bis 2-Chloroethoxy Methane; 20 mg/kg; iv; Female; F344. This is another data set of the same source.
For data set [38], the system named is Rat. Kind of data set: concentration in thymus after dosing. The note with it: 5 h; dosed: Bis 2-Chloroethoxy Methane; 20 mg/kg; iv; Male; F344.

In turn, `OCCC(F)(F)C(F)(F)C(F)(F)C(F)(F)C(F)(F)C(F)(F)C(F)(F)C(F)(F)F` [Fluorotelomer alcohol 8+2] came in with a concentration in brain in data set [1] of 2520 ng/g. The concentration in plasma came out at 1710 ng/mL in [2] (0.25 h); 3.59 ng/mL in data set [2] (24 h); 5950 ng/mL in data set [3] (0.5 h); 68 ng/mL in data set [3] (9 h); 253 ng/mL in [5] (0.25 h); 40.7 ng/mL in [5] (6 h). For the same compound, the concentration in kidney in data set [4] was determined as 271 ng/g. Also, the concentration in liver in data set [6] was found to be 8140 ng/g; in data set [7], 4040 ng/g; in data set [8], 13000 ng/g.
`Cc1cccc(Nc2cc(Cl)nc(SCC(=O)O)n2)c1C`: the concentration in plasma in [9] (0.25 h) is 889 ng/mL; in data set [9] (4 h), 160 ng/mL; in data set [10], 382 ng/mL.
For `CCCCOC(=O)c1ccccc1C(=O)O` [Mono-n-butyl phthalate], the values for the concentration in plasma in [11], in data set [12] and in [13] were 1110 ng/mL, 3830 ng/mL and 726 ng/mL, respectively.
On to `O=C(O)C(Cl)Cl` [dichloroacetic acid], for which, in data set [14], the concentration in plasma is 680 ng/mL.
On to `O=C(O)C(F)(F)C(F)(F)C(F)(F)C(F)(F)C(F)(F)C(F)(F)C(F)(F)C(F)(F)C(F)(F)F` [Perfluorodecanoic acid], for which the results for the concentration in brain in data set [15] and in [19] were 644 ng/g and 752 ng/g, respectively. Further, in data set [16], the concentration in liver was found to be 43600 ng/g. In addition, the concentration in kidney in data set [17] is 6720 ng/g; in data set [18], 8630 ng/g.
Consider `O=C(O)CSCC(=O)O` [Thiodiglycolic Acid], for which, in [20], the concentration in liver came out at 22900 ng/g. Further, the concentration in thymus turned out to be 904 ng/g in data set [21], 3010 ng/g in [23], 8060 ng/g in [24] and 547 ng/g in data set [25]. Moreover, the figures for the concentration in heart in [22] and in [26] were 9540 ng/g and 1520 ng/g, respectively.
Consider `CCC1(c2ccccc2)C(=O)NC(=O)NC1=O` [Phenobarbital], for which the values for the concentration in plasma in data set [27] and in data set [28] were 720 ng/mL and 8210 ng/mL, respectively.
Take `ClCCOCOCCCl` [Bis 2-Chloroethoxy Methane]: the concentration in plasma in data set [29] stood at 1410 ng/mL; in [30], 840 ng/mL; in data set [31], 90.6 ng/mL; in data set [32] (1 h) it was 4820 ng/mL; in data set [32] (9.667 h) it was 15.4 ng/mL; in [35] (10 min), 22300 ng/mL. For the same compound, the concentration in plasma turned out to be 72.8 ng/mL in [35] (5.333 h), 16.9 ng/mL in [36] and 1720 ng/mL in data set [37]. For the same compound, the concentration in heart in [33] was 1380 ng/g. The same compound showed a concentration in liver in [34] of 33.4 ng/g. In [38], this compound had a concentration in thymus of 78.9 ng/g.
